Results: article PMC8402032, “Unsymmetric Cisplatin-Based Pt(IV) Conjugates Containing a PARP-1 Inhibitor Pharmacophore Tested on Malignant Pleural Mesothelioma Cell Lines” (Molecules, 2021)
Like-named read-outs stand apart in the source and are kept apart here.

Assays:
[1] = tested on: MSTO-211H (biphasic phenotype) malignant pleural mesothelioma cells; assay: Cell viability assay (Trypan blue dye exclusion), MSTO-211H; type: cell-based, human
Method: (§1) Complexes 6–9 were tested on a panel of human MPM cell lines together with CDDP and SAA1, added for comparison (Table 1). The half-maximal inhibitory concentration, IC50, was determined on MSTO-211H (biphasic phenotype), REN (epithelioid), BR95 (epithelioid), and MM98 (sarcomatoid) cancer cell lines to identify the most promising Pt(IV) conjugate to be further investigated. To determine the number of viable cells, the use of the dye exclusion assay was preferred to the colorimetric assay because of the heterogeneity in the energy metabolism between the different MPM cell lines. This may justify minor differences with respect to the previously published IC50 for CDDP [40].
(§2) Cells were seeded at a density of 10 × 10^4 cells per well in 6-well plates in RPMI medium supplemented with 10% fetal bovine serum (FBS), 100 μg mL^−1 streptomycin, and 10 μg mL^−1 penicillin and incubated overnight at 37 °C in a humidified environment containing 5% CO2 to allow adherence. Cisplatin was dissolved in 0.9% w/v aqueous NaCl brought to pH = 3 with HCl (final stock concentration 1 mM). The Pt(IV) complexes were dissolved in DMSO (final stock concentration 5 mM); the resulting solutions were microfiltered (0.45 μm) and their Pt content was checked by ICP-MS (see Section 3.5.2). These mother solutions were diluted in complete medium to the required concentration range.
(§3) Following 72 h of treatment with the diluent of the compound (Ctrl) or different doses of the Pt compounds, cells were trypsinized and stained with Trypan blue. The number of cells considered viable (unstained cells) was counted in a Bürker haemocytometer within 5 min after staining.

[2] = biological target: T1, PARP-1 (Homo sapiens, UniProt P09874); assay: Western blot of poly(ADP-ribose) (PAR) and PARP-1 in MSTO-211H cells; type: cell-based; conditions: 5 µM, 72 h
T1 construct: endogenous in cells; host or cells: MSTO-211H cells
T1 sequence (P09874 whole entry): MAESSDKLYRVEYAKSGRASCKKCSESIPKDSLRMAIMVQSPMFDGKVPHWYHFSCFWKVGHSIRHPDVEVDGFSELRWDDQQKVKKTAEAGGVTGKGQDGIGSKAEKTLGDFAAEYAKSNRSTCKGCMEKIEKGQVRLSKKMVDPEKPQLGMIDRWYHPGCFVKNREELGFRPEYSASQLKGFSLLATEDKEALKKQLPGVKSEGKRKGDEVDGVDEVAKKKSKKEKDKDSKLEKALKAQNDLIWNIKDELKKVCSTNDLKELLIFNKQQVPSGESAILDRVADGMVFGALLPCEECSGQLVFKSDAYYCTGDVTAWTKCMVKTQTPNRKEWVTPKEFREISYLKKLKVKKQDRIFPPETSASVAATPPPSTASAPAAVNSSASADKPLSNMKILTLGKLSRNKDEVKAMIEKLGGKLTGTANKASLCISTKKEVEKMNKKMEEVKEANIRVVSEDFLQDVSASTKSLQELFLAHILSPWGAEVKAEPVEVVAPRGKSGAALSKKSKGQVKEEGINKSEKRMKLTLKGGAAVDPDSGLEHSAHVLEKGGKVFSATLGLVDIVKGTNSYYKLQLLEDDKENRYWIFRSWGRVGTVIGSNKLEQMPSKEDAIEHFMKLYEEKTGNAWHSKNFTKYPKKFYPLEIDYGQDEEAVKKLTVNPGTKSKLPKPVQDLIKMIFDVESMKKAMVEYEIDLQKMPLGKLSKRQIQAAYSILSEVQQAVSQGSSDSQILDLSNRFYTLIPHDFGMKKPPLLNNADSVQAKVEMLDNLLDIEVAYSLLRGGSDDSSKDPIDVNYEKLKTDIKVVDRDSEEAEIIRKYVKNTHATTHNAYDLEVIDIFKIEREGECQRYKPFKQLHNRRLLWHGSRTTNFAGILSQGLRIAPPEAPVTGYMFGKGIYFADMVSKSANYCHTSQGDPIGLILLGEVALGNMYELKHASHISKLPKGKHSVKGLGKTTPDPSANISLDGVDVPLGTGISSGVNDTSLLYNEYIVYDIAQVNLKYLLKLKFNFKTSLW
Method: The effect of the most promising complex 6 on PARP-1 activity was further evaluated. MSTO-211H cells were treated with equimolar concentrations (5 µM) of 6, CDDP, and 3-ABA for 72 h. The two last compounds were used either alone or in combination in a 1:1 molar ratio. Western blot analysis evaluated the expression of poly(ADP-ribose) (PAR), which is the product of PARP-1 activity (Figure 4A).
For protein analysis, cells were extracted with 1% NP-40 lysis buffer (50 mM Tris-HCl pH 8.5 containing 1% NP-40, 150 mM NaCl, 10 mM EDTA, 10 mM NaF, 10 mM Na4P2O7, and 0.4 mM Na3VO4) with freshly added protease inhibitors (10 μg mL^−1 leupeptin, 4 μg mL^−1 pepstatin, and 0.1 U mL^−1 aprotinin). Lysates were centrifuged at 13,000× g for 10 min at 4 °C and the supernatants were collected and assayed for protein concentration with the Bradford assay method (Bio-Rad). Proteins were separated by SDS-PAGE (sodium dodecyl sulfate polyacrylamide gel electrophoresis) under reducing conditions. Following SDS-PAGE, proteins were transferred to nitrocellulose, reacted with specific antibodies, and then detected with peroxidase-conjugate secondary antibodies and chemioluminescent ECL reagent. Digital images were taken with the Bio-Rad ChemiDocTM Touch Imaging System and quantified using Bio-Rad Image Lab 5.2.1.
Figure 4 (A) Representative Western blot showing poly(ADP-ribose) (PAR) and PARP-1 expression following 72 h MSTO-211H cell treatment with diluent (Ctrl) or 5 µM concentrations of cisplatin (CDDP), 6, CDDP + 3-ABA combination (1:1 ratio), and 3-ABA alone. HSC70 protein was used as loading control. (B) Immunocytochemistry was used to capture representative γH2AX focus images following 72 h MSTO-211H cell treatment with diluent (Ctrl) or 5 µM of complex 6.

[3] = tested on: MM98 (sarcomatoid) malignant pleural mesothelioma cells; assay: Cell viability assay (Trypan blue dye exclusion), MM98; type: cell-based, human; conditions: 72 h treatment; for IC50: mean ± sd
Method: as §1, §2, §3

[4] = tested on: BR95 (epithelioid) malignant pleural mesothelioma cells; assay: Cell viability assay (Trypan blue dye exclusion), BR95; type: cell-based, human; conditions: 72 h treatment; for IC50: mean ± sd
Method: as §1, §2, §3

[5] = tested on: REN (epithelioid) malignant pleural mesothelioma cells; assay: Cell viability assay (Trypan blue dye exclusion), REN; type: cell-based, human; conditions: 72 h treatment; for IC50: mean ± sd
Method: as §1, §2, §3

[6] = Lipophilicity by RP-HPLC (log k′); type: physicochemical; conditions: RP-HPLC C18, 15 mM formic acid/CH3OH 30/70
Description: Since it has been reported that Pt(IV) complexes enter cells by passive diffusion only, with a few exceptions, the evaluation of lipophilicity is key because it is related to the ability of a molecule to passively cross cellular membranes. RP-HPLC techniques are often used to measure the lipophilicity of a compound, since the retention is due to partitioning between the C18 chains of the stationary phase (representing the cellular membrane) and the aqueous eluent (representing the water inside and outside cells). For this purpose, the retention times (tR) of the complexes were transformed as log k′, where k′ = (tR − t0)/t0) and t0 is the column dead-time (Table 1).
RP-HPLC was used to evaluate the capacity factors of the compounds as reported elsewhere. Briefly, a chromatogram for each Pt complex (0.5 mM) was run on a C18 column Phenosphere-NEXT (5-μm, 250 × 4.6 mm ID) with an eluant composition of 15 mM formic acid/CH3OH 30/70 and a flow rate of 0.5 mL min^−1. The corresponding retention time tR was used to calculate log k′, where k′ = (tR − t0)/t0. The dead time of the column t0 was the tR of KCl, added as unretained internal reference.

[7] = tested on: MSTO-211H cells; assay: Cell uptake (intracellular Pt by ICP-MS); type: cell-based, human; conditions: 10 μM, 4 h treatment, mean ± sd
Method: Cellular accumulation of compounds 6–9 was evaluated by means of the intracellular Pt uptake after 4 h treatment of MSTO-211H cells and expressed as ng Pt per 10^6 cells (Table 1). As expected, the Fmoc protection of 6 and 7 enhances the lipophilicity of the complexes, facilitating their cell uptake. Also the elongation of the organic linker from -(CH2)2- to -(CH2)6- increases (to a minor extent) the lipophilicity in 7 and 9 with respect to 6 and 8.
MSTO-211H cells were seeded in […] Petri dishes and challenged with the compounds and mixtures under investigations (10 μM) in complete medium. At the end of the exposure, cells were washed three times with phosphate buffered saline (PBS) and detached from the Petri dishes using 0.05% Trypsin 1X + 2% EDTA (HyClone, Thermo Fisher). The cells were harvested in fresh complete medium and an automatic cell counting device (Countess®, Life Technologies, Carlsbad, CA, USA) was used to measure the number and the mean diameter from every cell count. The harvested cells were transferred into a borosilicate glass tube and centrifuged at 1100× g rpm for 5 min at room temperature. The supernatant was carefully removed by aspiration, but about 200 μL of the supernatant was left in order to limit the cellular loss. Finally, the cellular pellets were stored at −80 °C. Platinum content determination was performed by ICP-MS (Thermo Optek X Series 2). Complete mineralization was obtained by the addition of 70% w/w HNO3 to each sample (after defrosting), followed by incubation for 1 h at 60 °C in an ultrasonic bath. Before the ICP-MS measurement, the HNO3 was diluted to a final 1% concentration. The instrumental settings were optimized to yield maximum sensitivity for platinum, and the most abundant isotopes of Pt (m/z = 195) and In (m/z = 115, used as internal standard) were quantified. The level of Pt found in cells after the treatment was normalized to the cell number and expressed as ng of Pt per 10^6 cells.

[8] = Reduction with ascorbic acid followed by RP-HPLC; type: physicochemical; conditions: ascorbic acid 10 mM, HEPES 50 mM pH 7.4, 37 °C, cosolvent DMF or MeOH
Method: To verify the activation by reduction mechanism, complexes 6–9 were challenged with the model bioreductant ascorbic acid (AA, 10 mM in water) in HEPES buffer (HEPES = 4-(2-hydroxyethyl)-1-piperazineethanesulfonic acid, 50 mM, pH = 7.4) at 37 °C. The reaction was monitored by following the RP-HPLC peaks over 24 h. The different solubility and retention times required different experimental conditions for the different compounds (cosolvent DMF or MeOH was necessary to maintain the Pt compounds in solution, >5% v/v). For these reasons, complete reduction for 8 and 9 was observed after 8 h, whereas for 6 and 7, the >85% peak area disappeared after 24 h only. […] Complexes 6–9, having very similar coordination skeletons, can be expected to behave in the same way.
The reduction of complexes with ascorbic acid was followed by monitoring of the reduction of the area of their chromatographic peaks via RP-HPLC over 24 h at 37 °C. The Pt compounds were dissolved in methanol or DMF (up to 20 mM) and diluted with different quantities of 50 mM 4-(2-hydroxyethyl)piperazine-1-ethanesulfonic acid (HEPES) buffer (pH = […]) containing 10 mM ascorbic acid. The mixtures were microfiltered to eliminate the precipitated complex. The chromatographic conditions were similar to those for the determination of lipophilicity (see Section 3.4), with different percentages of methanol depending on the complex.

[9] = 72 h treatment, mean ± sd, read-out: IC50 MSTO-211H

Compound	IC50 ([1]; Homo sapiens, MSTO-211H, read-out: IC50 on MSTO-211H) [µM]	IC50 [3] [µM]	IC50 [1, 9] [µM]	IC50 [4] [µM]	IC50 [5] [µM]	Log k′ [6]	time to complete reduction [8] [h]	peak area disappeared after 24 h ([8]; 24 h) [%]	PARP-1 parylation (PAR expression) [2]	ratio IC50 (cisplatin)/IC50 (Pt(IV) complex), MM98 [3]	ratio IC50 (cisplatin)/IC50 (Pt(IV) complex), MSTO-211H ([1]; 72 h treatment)	ratio IC50 (cisplatin)/IC50 (Pt(IV) complex), BR95 [4]	ratio IC50 (cisplatin)/IC50 (Pt(IV) complex), REN [5]	Pt Uptake [7] [ng Pt per 10^6 Cells]	PARP-1 cleavage [2]
NC(=O)c1cccc(N)c1 [Compound 3-ABA, 3-aminobenzamide, reference compound]	5412 ± 28								No self-parylation of PARP-1						
N.N.[Cl][Pt][Cl] [Cisplatin, CDDP, (SP-4-2)-diamminedichloridoplatinum(II), reference compound]		1.75 ± 0.09	1.14 ± 0.07	2.15 ± 0.29	3.07 ± 0.43				increase in PARP-1 parylation					9.23 ± 0.96	did not induce PARP-1 cleavage

The next lines start with results.

IC50 ([1]; Homo sapiens, MSTO-211H, read-out: IC50 on MSTO-211H) [µM]	IC50 [3] [µM]	IC50 [1, 9] [µM]	IC50 [4] [µM]	IC50 [5] [µM]	Log k′ [6]	time to complete reduction [8] [h]	peak area disappeared after 24 h ([8]; 24 h) [%]	Compound	PARP-1 parylation (PAR expression) [2]	ratio IC50 (cisplatin)/IC50 (Pt(IV) complex), MM98 [3]	ratio IC50 (cisplatin)/IC50 (Pt(IV) complex), MSTO-211H ([1]; 72 h treatment)	ratio IC50 (cisplatin)/IC50 (Pt(IV) complex), BR95 [4]	ratio IC50 (cisplatin)/IC50 (Pt(IV) complex), REN [5]	Pt Uptake [7] [ng Pt per 10^6 Cells]	PARP-1 cleavage [2]
	58.4 ± 2.7	28.9 ± 2.9	56.8 ± 4.3	46.9 ± 3.2	0.25	8		CC(=O)[O][Pt]([NH2])([NH2])([Cl])([Cl])[O]C(=O)CCNC(=O)c1cccc(N)c1 [Compound 8, (OC-6-44)-Acetato[3-(3-aminobenzamido)-propanoato]-diammine-dichlorido-platinum(IV)]		0.030	0.039	0.038	0.065	2.50 ± 1.16	
	44.1 ± 3.5	54.9 ± 3.1	39.7 ± 2.7	38.9 ± 2.2	0.34	8		CC(=O)[O][Pt]([NH2])([NH2])([Cl])([Cl])[O]C(=O)CCCCCCNC(=O)c1cccc(N)c1 [Compound 9, (OC-6-44)-Acetato-[7-(3-aminobenzamido)-heptanoato]-diammine-dichlorido-platinum(IV)]			0.021	0.054	0.079	3.12 ± 0.78	
	0.45 ± 0.08	1.48 ± 0.02	2.19 ± 0.13	2.22 ± 0.08	5.84		> 85	CC(=O)[O][Pt]([NH2])([NH2])([Cl])([Cl])[O]C(=O)CCCCCCNC(=O)c1cccc(NC(=O)OCC2c3ccccc3-c3ccccc32)c1 [Compound 7, (OC-6-44)-Acetato-[7-(3-(fmoc-amino)-benzamido)-heptanoato]-diammine-dichlorido-platinum(IV)]		3.9	0.77	0.98	1.4	10.86 ± 1.17	
